Laboratory results taken from patent US20250186437A1, “CARBOLINE COMPOUNDS AND USE THEREOF” (PTC Therapeutics, Inc., priority 2021, published 2025).

Key:
MOLM-13 cells [1] = test: MOLM-13 Uridine Rescue Assay; assay type: cell-based; conditions: Homo sapiens; MOLM-13 cell proliferation with 100 μM Uridine added, 72 Hours of culture
Procedure, shortened: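 MOLM-13 cells (passage <20) in RPMI 1640 + 10% FBS at 10^4 cells/well, treated with compound in 0.5% final DMSO for 72 h at 37 °C, 5% CO2. Viability by CellTiter-Glo luminescence. Rescue plates additionally received 100 μM uridine.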

MOLM-13 cells [2] = test: MOLM-13 Cell Proliferation Assay (indicator of DHODH inhibition); assay type: cell-based; conditions: Homo sapiens, 72 Hours of culture, CellTiter-Glo, no uridine
Procedure, shortened: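 Proliferation readout via CellTiter-Glo luminescence after 72 h compound treatment (37 °C, 5% CO2, 0.5% DMSO) of MOLM-13 cells seeded at 10^4 per well in RPMI 1640/10% FBS, used as a DHODH-inhibition indicator since these cells rely on de novo pyrimidine synthesis.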

SMILES	IC50 (MOLM-13 cells [1])	IC50 (MOLM-13 cells [2])
Cc1cc(N)c2[nH]c3c(c2c1)CCN(c1nccc(C(F)(F)F)n1)C3c1ccc(C)c(F)c1F (stereo not drawn) [Compound 272, 1-(2,3-difluoro-4-methylphenyl)-6-methyl-2-[4-(trifluoromethyl)pyrimidin-2-yl]-2,3,4,9-tetrahydro-1H-pyrido[3,4-b]indol-8-amine]	7680 nM	7.9 nM
Nc1cc(Cl)cc2c3c([nH]c12)C(c1cnc(N2CCOCC2)nc1)N(c1nccc(C(F)(F)F)n1)CC3 (stereo not drawn) [Compound 310, 6-chloro-1-[2-(morpholin-4-yl)pyrimidin-5-yl]-2-[4-(trifluoromethyl)pyrimidin-2-yl]-2,3,4,9-tetrahydro-1H-pyrido[3,4-b]indol-8-amine]	14400 nM	1.1 nM
Fc1cc2[nH]c3c(c2cc1Cl)CCN(c1nccc(C(F)(F)F)n1)C3c1cccc(F)c1F (stereo not drawn) [Compound 108, 6-chloro-1-(2,3-difluorophenyl)-7-fluoro-2-[4-(trifluoromethyl)pyrimidin-2-yl]-2,3,4,9-tetrahydro-1H-pyrido[3,4-b]indole]	8270 nM	1.9 nM
Cc1ccc([C@H]2c3[nH]c4ccc(Cl)cc4c3CCN2c2nccc(C(F)(F)F)n2)c(F)c1F [Compound 233, (1S)-6-chloro-1-(2,3-difluoro-4-methylphenyl)-2-[4-(trifluoromethyl)pyrimidin-2-yl]-2,3,4,9-tetrahydro-1H-pyrido[3,4-b]indole]	12400 nM	0.4 nM

Continued, values first:

IC50 (MOLM-13 cells [1])	IC50 (MOLM-13 cells [2])	SMILES
6410 nM	8.9 nM	Cc1ccnc(N2CCc3c([nH]c4ccc(Cl)cc34)C2c2ccc(N3CCOCC3)nc2)n1 (stereo not drawn) [Compound 352, 6-chloro-2-(4-methylpyrimidin-2-yl)-1-[6-(morpholin-4-yl)pyridin-3-yl]-2,3,4,9-tetrahydro-1H-pyrido[3,4-b]indole]
8470 nM	2.1 nM	Nc1cc2[nH]c3c(c2cc1Cl)CCN(c1nccc(C(F)(F)F)n1)C3c1cnc(N2CCOCC2)nc1 (stereo not drawn) [Compound 311, 6-chloro-1-[2-(morpholin-4-yl)pyrimidin-5-yl]-2-[4-(trifluoromethyl)pyrimidin-2-yl]-2,3,4,9-tetrahydro-1H-pyrido[3,4-b]indol-7-amine]
9720 nM	13.4 nM	Cc1nc(C)nc(N2CCc3c([nH]c4ccc(Cl)cc34)C2c2ccc(N3CCOCC3)nc2)n1 (stereo not drawn) [Compound 324, 6-chloro-2-(4,6-dimethyl-1,3,5-triazin-2-yl)-1-[6-(morpholin-4-yl)pyridin-3-yl]-2,3,4,9-tetrahydro-1H-pyrido[3,4-b]indole]
5660 nM	11.7 nM	Cc1ccc(C2c3[nH]c4ccc(Cl)cc4c3CCN2c2nc(C)nc(C)n2)cc1 (stereo not drawn) [Compound 355, 6-chloro-2-(4,6-dimethyl-1,3,5-triazin-2-yl)-1-(4-methylphenyl)-2,3,4,9-tetrahydro-1H-pyrido[3,4-b]indole]
6640 nM	0.3 nM	FC(F)(F)c1nc(N2CCc3c([nH]c4ccc(Cl)cc34)C2c2cnc(N3CCOCC3)nc2)nc(C(F)(F)F)n1 (stereo not drawn) [Compound 388, 2-[4,6-bis(trifluoromethyl)-1,3,5-triazin-2-yl]-6-chloro-1-[2-(morpholin-4-yl)pyrimidin-5-yl]-2,3,4,9-tetrahydro-1H-pyrido[3,4-b]indole]
